The subject of assay [1] is Blood. The assay is described as follows: Anti-inflammatory activity in Homo sapiens (human) whole blood assessed inhibition of LPS-induced TNF-alpha production at 1 uM treated 30 min before LPS challenge measured after 5 hr. In kind it is functional.
Assay [2] in a line: Antioxidant activity assessed as hydroxyl radical scavenging activity at 10 uM by spectrophotometric analysis. In kind it is functional.
For assay [3], the system named is Radical scavenging activity. The assay is described as follows: Antioxidant activity assessed as DPPH free radical scavenging activity at 10 uM by spectrophotometric analysis. It is filed as functional. Background: DPPH is a stable violet radical that fades when it is reduced.
Assay [4] concerns Blood. The assay is described as follows: Anti-inflammatory activity in Homo sapiens (human) whole blood assessed inhibition of LPS-induced TNF-alpha production treated 30 min before LPS challenge measured after 5 hr. It is filed as functional, tissue-based.
Assay [5] deals with Blood. The assay is described as follows: Anti-inflammatory activity in Homo sapiens (human) whole blood assessed inhibition of LPS-induced TNF-alpha production at 10 uM treated 30 min before LPS challenge measured after 5 hr. It is filed as functional.
Assay [6] can be described thus: Antioxidant activity assessed as reduction of K3Fe(CN)6 to Fe2+ at 10 uM after 10 min. In kind it is functional. Further details: scale not given: the % may be the effect or the level left; call rule not given here.
In assay [7] the target is T1, Prostaglandin G/H synthase 2 (Ovis aries) (UniProt P79208).
T1 sequence (whole entry): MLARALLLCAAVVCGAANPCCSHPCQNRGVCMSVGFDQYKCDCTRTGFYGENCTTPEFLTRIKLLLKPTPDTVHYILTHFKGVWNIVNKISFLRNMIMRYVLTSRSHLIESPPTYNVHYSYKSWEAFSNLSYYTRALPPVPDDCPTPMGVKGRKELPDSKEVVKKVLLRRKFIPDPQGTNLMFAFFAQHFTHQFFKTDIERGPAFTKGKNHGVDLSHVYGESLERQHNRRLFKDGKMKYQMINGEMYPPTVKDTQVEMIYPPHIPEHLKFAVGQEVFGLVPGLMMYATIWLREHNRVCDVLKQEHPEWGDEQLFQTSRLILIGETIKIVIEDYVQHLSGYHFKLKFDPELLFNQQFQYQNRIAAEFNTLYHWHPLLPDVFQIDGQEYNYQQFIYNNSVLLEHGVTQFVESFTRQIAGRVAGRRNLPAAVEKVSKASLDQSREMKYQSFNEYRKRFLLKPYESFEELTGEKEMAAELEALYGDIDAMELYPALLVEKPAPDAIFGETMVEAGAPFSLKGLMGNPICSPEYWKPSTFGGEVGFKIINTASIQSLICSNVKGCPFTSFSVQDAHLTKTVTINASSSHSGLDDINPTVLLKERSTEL
The assay is described as follows: Inhibition of Ovis aries (sheep) COX2 at 1 mM after 5 min by colorimetric analysis.

In assay [8] the target is T2, Prostaglandin G/H synthase 1 (Ovis aries) (UniProt P05979).
T2 sequence (whole entry): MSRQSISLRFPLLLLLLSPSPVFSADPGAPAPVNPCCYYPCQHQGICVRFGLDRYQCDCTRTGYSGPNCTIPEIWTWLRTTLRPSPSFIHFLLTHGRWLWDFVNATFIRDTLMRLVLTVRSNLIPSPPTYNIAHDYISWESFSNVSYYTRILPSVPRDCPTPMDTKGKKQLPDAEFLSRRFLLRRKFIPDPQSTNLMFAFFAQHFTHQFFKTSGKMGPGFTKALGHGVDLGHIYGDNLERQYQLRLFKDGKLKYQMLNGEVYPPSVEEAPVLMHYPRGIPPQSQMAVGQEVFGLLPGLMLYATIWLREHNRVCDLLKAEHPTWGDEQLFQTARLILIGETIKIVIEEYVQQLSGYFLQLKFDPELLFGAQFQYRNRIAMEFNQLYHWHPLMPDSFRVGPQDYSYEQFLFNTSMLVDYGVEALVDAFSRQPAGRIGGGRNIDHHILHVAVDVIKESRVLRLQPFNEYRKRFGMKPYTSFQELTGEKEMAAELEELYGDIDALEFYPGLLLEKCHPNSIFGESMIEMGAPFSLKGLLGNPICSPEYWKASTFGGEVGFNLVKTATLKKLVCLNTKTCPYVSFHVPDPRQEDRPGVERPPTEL
Conditions: at 1 mM.
Description: Inhibition of Ovis aries (sheep) COX1 at 1 mM after 5 min by colorimetric analysis

The target in the next assay is Trypsin (Homo sapiens) (UniProt P07477+P07478+P35030). The assay is described as follows: Inhibition of trypsin (unknown origin) assessed as hydrolysis of bovine serum albumin at 1 mM after 20 min. It is filed as protein assay.
The target of assay [9] is T3, Beta-glucuronidase (Homo sapiens) (UniProt P08236).
T3 sequence (whole entry): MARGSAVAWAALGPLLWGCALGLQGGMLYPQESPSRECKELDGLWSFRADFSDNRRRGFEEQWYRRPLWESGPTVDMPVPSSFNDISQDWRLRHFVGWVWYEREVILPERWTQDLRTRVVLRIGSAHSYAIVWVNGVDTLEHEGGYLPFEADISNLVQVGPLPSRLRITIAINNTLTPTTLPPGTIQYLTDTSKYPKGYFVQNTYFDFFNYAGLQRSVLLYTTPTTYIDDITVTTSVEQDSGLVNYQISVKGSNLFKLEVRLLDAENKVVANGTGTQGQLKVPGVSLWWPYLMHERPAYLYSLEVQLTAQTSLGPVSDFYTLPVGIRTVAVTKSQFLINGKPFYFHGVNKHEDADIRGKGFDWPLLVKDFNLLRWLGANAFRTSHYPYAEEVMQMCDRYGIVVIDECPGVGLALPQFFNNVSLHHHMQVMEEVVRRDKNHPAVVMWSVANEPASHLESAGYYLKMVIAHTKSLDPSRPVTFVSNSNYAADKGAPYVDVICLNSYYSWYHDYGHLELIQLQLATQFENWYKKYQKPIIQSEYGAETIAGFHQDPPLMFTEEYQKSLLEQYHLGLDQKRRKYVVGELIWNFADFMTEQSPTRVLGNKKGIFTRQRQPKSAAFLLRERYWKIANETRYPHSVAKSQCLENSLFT
The assay is described as follows: Inhibition of beta-glucuronidase (unknown origin) using p-nitrophenyl-beta-D-glucopyranosiduronic acid as substrate at 1 mM after 30 min.

Where [10] appears, read: Homo sapiens, Blood, read-out: IC50.

Each structure is given as a SMILES string.

For orientation: inhibition means the relative decrease from the control value, in per cent. In general, IC50 refers to the concentration that gives 50% inhibition. In the assay on Blood [1], `COc1cc(OC)c(C(=O)/C=C/c2ccc(Cl)cc2Cl)c(O)c1Br` had an inhibition at 1 µM of 46%. Further, the Activity came out at 30.2% in [2], 17.3% in assay [3] and 17.4% in assay [6]. In the assay with Blood [4] (setting [10]), the IC50 was 8.9 µM. This compound also registered an inhibition at 10 µM with Blood [5] of 53%.
In the case of `COc1cc(OC)c(C(=O)/C=C/c2cccc(Br)c2)c(O)c1Br`, in the assay on Blood [1], testing at 1 µM gave an inhibition of 13%. Further, the Activity came out at 38.2% in [2], 24.1% in assay [3] and 19.6% in assay [6]. For the same compound, in the assay with Blood [4] (setting [10]), the IC50 is 8.2 µM. The inhibition at 10 µM in the assay with Blood [5] came out at 57%.
In the assay on Blood [1], `COc1cc(OC)c(C(=O)/C=C/c2cccc(F)c2)c(O)c1Br` yielded an inhibition at 1 µM of 36%. The figures for the Activity in [3] and in assay [6] were 12% and 12.2%, respectively. The IC50 in the assay on Blood [4] (setting [10]) is 1.2 µM. Moreover, testing at 10 µM in the assay on Blood [5] gave an inhibition of 63%.
The like results for `COc1cc(OC)c(C(=O)/C=C/c2ccc(Cl)c([N+](=O)[O-])c2)c(O)c1Br` were, in that order, 34%, 14.3%, 26%, 14.2 µM and 49%.
In the assay on Blood [1], `COc1cc(OC)c(C(=O)/C=C/c2ccccc2F)c(O)c1Br` showed an inhibition at 1 µM of 24%. Also, the results for the Activity in [2], in assay [3] and in [6] were 16.8%, 29.9% and 29.7%, respectively. In addition, in the assay with Blood [4], the IC50 result is given as “Not Active”. In the assay on Blood [5], this compound displayed an inhibition at 10 µM of 38%.
On to `O=C(O)c1cc(O)c(O)c(O)c1`, for which the Activity in [3] worked out at 91%.
`COc1cc(OC)c(C(=O)/C=C/c2cc[nH]c2)c(O)c1Br` returned an inhibition at 1 µM with Blood [1] of 42%. Also, the Activity in [3] worked out at 26.7%; in [6], 26%. Further, the IC50 with Blood [4] (setting [10]) came out at 0.6 µM. In addition, testing at 10 µM with Blood [5] gave an inhibition of 78%.
`COc1cc(OC)c(C(=O)/C=C/c2ccc(Cl)cc2)c(O)c1Br`: testing at 1 µM with Blood [1] gave an inhibition of 43%. For the same compound, the Activity in assay [2] was 38.2%; in assay [3] it was 18.4%; in assay [6], 15.7%. Also, the IC50 in the assay with Blood [4] (setting [10]) came out at 1.4 µM. This compound gave an inhibition at 10 µM in the assay on Blood [5] of 51%.
`COc1ccc(/C=C/C(=O)c2c(OC)cc(OC)c(Br)c2O)c(OC)c1`: the inhibition came to 57.8% in [7], 52.4% in assay [8], 39.5% at Trypsin (Homo sapiens) and 41.3% in assay [9]. This compound returned an inhibition at 1 µM with Blood [1] of 21%. Also, the Activity in assay [2] was found to be 28.8%; in assay [3] it was 20.2%; in [6], 18.4%. Further, in the assay on Blood [4] (setting [10]), the IC50 worked out at 10.2 µM. The same compound registered an inhibition at 10 µM in the assay on Blood [5] of 59%.
`COc1cc(OC)c(C(=O)/C=C/c2cccc([N+](=O)[O-])c2)c(O)c1Br` had an inhibition at 1 µM in the assay with Blood [1] of 31%. The Activity in assay [2] was found to be 18.8%; in assay [3], 23.7%; in [6] it was 26.2%. Further, the IC50 in the assay on Blood [4] (setting [10]) is 10.1 µM. In addition, the inhibition at 10 µM in the assay on Blood [5] was found to be 50%.
In assay [7], `CC(=O)Oc1ccccc1C(=O)O` displayed an inhibition of 38.5%.
Turning to `COc1cc(OC)c(C(=O)/C=C/c2ccccc2C(F)(F)F)c(O)c1Br`, at 1 µM the inhibition with Blood [1] was 27%. Also, the Activity in [2] was found to be 47%; in assay [3], 13.7%; in assay [6], 10%. Further, in the assay with Blood [4] (setting [10]), the 50% inhibitory concentration (IC50) stood at 3.2 µM. The same compound came in with an inhibition at 10 µM in the assay with Blood [5] of 52%.
For the compound `O=C1O[C@H]([C@@H](O)CO)C(O)=C1O`, the Activity amounted to 41.2% in assay [2] and 76.6% in assay [6].
As to `O=C(O)c1ccccc1O`, the inhibition in [9] was determined as 26.5%.
On to `C[C@H]1C[C@H]2[C@@H]3CCC4=CC(=O)C=C[C@]4(C)[C@@]3(F)[C@@H](O)C[C@]2(C)[C@@]1(O)C(=O)CO` [BETAMETHASONE], for which testing at 1 µM with Blood [1] gave an inhibition of 72%. For the same compound, the IC50 in the assay with Blood [4] (setting [10]) is 1 µM. Further, testing at 10 µM in the assay on Blood [5] gave an inhibition of 87%.
On to `COc1cc(/C=C/C(=O)c2c(OC)cc(OC)c(Br)c2O)cc(OC)c1`, for which 1 µM produced 25% inhibition in the assay on Blood [1]. The Activity in [2] amounted to 23.5%; in assay [6], 18.4%. Also, the IC50 in the assay on Blood [4] (setting [10]) came out at 11.4 µM. Moreover, in the assay on Blood [5], at 10 µM the inhibition was 37%.
Consider `COc1ccc(OC)c(/C=C/C(=O)c2c(OC)cc(OC)c(Br)c2O)c1`, for which testing at 1 µM in the assay on Blood [1] gave an inhibition of 22%. Besides, the Activity stood at 31.6% in assay [2], 23% in assay [3] and 22.9% in assay [6]. Also, the IC50 with Blood [4] (setting [10]) was 10.9 µM. This compound returned an inhibition at 10 µM in the assay on Blood [5] of 57%.
In the assay on Blood [1], `COc1ccc(/C=C/C(=O)c2c(OC)cc(OC)c(Br)c2O)cc1` yielded an inhibition at 1 µM of 38%. In addition, the Activity was determined as 49.4% in assay [2], 38.4% in assay [3] and 34.3% in assay [6]. The IC50 with Blood [4] (setting [10]) worked out at 7.4 µM. In the assay on Blood [5], this compound registered an inhibition at 10 µM of 53%.
For the compound `COc1cc(OC)c(C(=O)/C=C/c2cccnc2)c(O)c1Br`, the inhibition at 1 µM in the assay on Blood [1] came to 45%. Further, the Activity in assay [2] was 44.1%; in assay [3], 21.1%; in assay [6] it was 16.6%. Moreover, the IC50 in the assay on Blood [4] (setting [10]) came out at 0.1 µM. In the assay on Blood [5], the inhibition at 10 µM was 85%.
For the compound `COc1cc(OC)c(C(=O)/C=C/c2ccccc2Cl)c(O)c1Br`, in the assay on Blood [1], 1 µM produced 40% inhibition. Also, the Activity in assay [2] is 32.3%; in assay [3] it was 15.8%; in [6], 14.3%. The IC50 with Blood [4] (setting [10]) stood at 15.9 µM. The same compound yielded an inhibition at 10 µM in the assay on Blood [5] of 72%.
Regarding `COc1cc(OC)c(C(=O)/C=C/c2cccc(C#N)c2)c(O)c1Br`, at 1 µM the inhibition in the assay on Blood [1] was 26%. For the same compound, the Activity in [2] is 25.6%; in assay [3], 27.4%; in assay [6], 17.3%. Also, the IC50 with Blood [4] (setting [10]) stood at 0.7 µM. In addition, the inhibition at 10 µM in the assay on Blood [5] is 57%.

(Values after ChEMBL document CHEMBL3044881, “Synthesis and biological evaluation of novel series of chalcone derivatives as inhibitors of cyclooxygenase and LPS-induced TNF- with potent antioxidant properties” (Med Chem Res, 2012).)
